20 compounds from ChEMBL document CHEMBL1629535, “Novel small molecule inhibitors of MDR Mycobacterium tuberculosis by NMR fragment screening of antigen 85C” (2010) can be followed below.

SMILES strings stand for the structures. In brackets after ≈: the same amount, converted by molar mass. Activity calls are given as the source filed them. The rule behind the calls is not given here.

The first assay deals with Mycobacterium tuberculosis. The assay can be described thus: Growth inhibition of multidrug resistance Mycobacterium tuberculosis 2745/09. Type of assay: functional.
For orientation: MIC means the lowest concentration found to suppress growth. Low readings indicate inhibition by little substance, high ones a need for much substance. In the case of `N#Cc1c(N)sc2c1CCCCC2`, it took 500 µg/mL (≈ 2600 µM) to inhibit growth (MIC).

`CCC1CCc2c(sc(N)c2C#N)C1` (stereo not drawn): the MIC is 50 µg/mL (≈ 242 µM). With `CCCOc1ccc2nc(N)sc2c1`, the MIC amounted to 20 µg/mL (≈ 96 µM). Take `CCCC1CCc2c(sc(N)c2C#N)C1` (stereo not drawn): the MIC came out at 50 µg/mL (≈ 227 µM).

Another assay deals with Diacylglycerol acyltransferase/mycolyltransferase Ag85C (Mycobacterium tuberculosis) (UniProt P9WQN9). Description: Binding affinity to substrate binding site of multidrug resistance Mycobacterium tuberculosis antigen 85C by NMR assay.
Sequence of Diacylglycerol acyltransferase/mycolyltransferase Ag85C (Mycobacterium tuberculosis) (P9WQN9 whole entry): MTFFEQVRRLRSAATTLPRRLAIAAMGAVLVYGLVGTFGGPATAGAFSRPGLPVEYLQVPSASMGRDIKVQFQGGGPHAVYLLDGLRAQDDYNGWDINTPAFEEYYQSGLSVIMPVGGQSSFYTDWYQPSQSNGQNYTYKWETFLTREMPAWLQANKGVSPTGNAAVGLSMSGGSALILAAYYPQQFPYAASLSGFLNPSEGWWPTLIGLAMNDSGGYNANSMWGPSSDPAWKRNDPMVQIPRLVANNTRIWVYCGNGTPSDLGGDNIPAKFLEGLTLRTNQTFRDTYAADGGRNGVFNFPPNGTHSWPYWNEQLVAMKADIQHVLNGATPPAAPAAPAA
As for `CC(=O)Nc1sc2c(c1C#N)CCCC2`, the outcome was inactive. Consider `Nc1sc2c(c1C(=O)NCc1ccccc1)CCCC2`, for which the result was inactive. The same measure, in the same setting: the entry for `N#Cc1c(N)sc2c1CCCCC2` is “Active”; for `CCCC1CCc2c(sc(N)c2C(N)=O)C1` (stereo not drawn) it is “Active”. Turning to `CC(=O)c1c(N)sc2c1CCCC2`, the outcome was Active. On to `COC(=O)c1c(N)sc2c1CCCC2`, for which the result was Active. Still for that read-out and setting: with `CCC1(C)Cc2c(sc(N)c2C#N)CO1` (stereo not drawn) the entry was “inactive”. Consider `N#Cc1c(N)sc2c1C1CCN2CC1`, for which the outcome was inactive. Turning to `CCC1CCc2c(sc(N)c2C#N)C1` (stereo not drawn), the result was Active. As to `CC1CCc2c(sc(N)c2C(N)=O)C1` (stereo not drawn), the outcome was Active. Consider `CC1(C)Cc2c(sc(N)c2C#N)CO1`, for which the result was inactive. As for `CC(C)C(=O)Nc1sc2c(c1C#N)CCCC2`, the outcome was inactive. With `CCC1CCc2c(sc(N)c2C(N)=O)C1` (stereo not drawn), the outcome was Active. For the compound `CCCC1CCc2c(sc(N)c2C#N)C1` (stereo not drawn), the outcome was Active. As for `CCN1CCc2c(sc(N)c2C#N)C1`, the result was inactive.

Consider `CC1CCc2c(sc(N)c2C#N)C1` (stereo not drawn), for which the outcome was Active. Same read-out and setting: with `N#Cc1c(N)sc2c1CCCC2` the entry was “Active”; with `CCOC(=O)c1c(N)sc2c1C(C)CCC2` (stereo not drawn), “Active”; with `O=c1[nH]c(-c2ccncc2)nc2sc3c(c12)CCCC3`, “inactive”.
